This passage reports pest or weed control results from patent publication US9107415B2, “2-(substituted-phenyl)-cyclopentane-1,3-dione compounds, and derivatives thereof” (Syngenta Limited, priority 2011, dated 2015).

Holding throughout (format): in vivo
For experiment [1], the system named is Echinochloa crus-galli (ECHCG). The experiment in a line: Biological Example 1 glasshouse screen, post-emergence herbicidal activity. Conditions: 312 h, application rate 250 g/ha, evaluated after 13 days, read-out: ECHCG percentage phytotoxicity. The protocol: (§1) Seeds of a variety of test species were sown in standard soil in pots. After cultivation for one day (pre-emergence) or after 8 days cultivation (post-emergence) under controlled conditions in a glasshouse (at 24/16°C., day/night; 14 hours light; 65% humidity), the plants were sprayed with an aqueous spray solution derived from the formulation of the “technical”(i.e. unformulated) active ingredient in acetone/water (50:50) solution containing 0.5% Tween 20 (polyoxyethylene sorbitan monolaurate, CAS Registry Number 9005-64-5). The test plants were then grown in a glasshouse under controlled conditions in a glasshouse (at 24/16°C., day/night; 14 hours light; 65% humidity) and watered twice daily. After 13 days for pre- or post-emergence, the test was evaluated visually, and an assessed percentage phytotoxicity score given for each herbicidal application on each plant/weed species (with 100%=total damage to plant; 0%=no damage to plant).
(§2) Test plants: Alopecurus myosuroides (ALOMY), Setaria faberi (SETFA), Echinochloa crus-galli (ECHCG), Solanum nigrum (SOLNI), Amaranthus retroflexus (AMARE) and Ipomoea hederacea (IPOHE). ALOMY, SETFA and ECHCG are grassy monocotyledonous weeds. SOLNI, AMARE and IPOHE are dicotyledonous (broadleaved) weeds.
(§3) Test plants: Lolium perenne (LOLPE), Alopecurus myosuroides (ALOMY), Echinochloa crus-galli (ECHCG), and Avena fatua (AVEFA). All four of these are grassy monocotyledonous weeds.

Experiment [2] deals with Alopecurus myosuroides (ALOMY). The description is as above. Particulars: 312 h, application rate 250 g/ha, evaluated after 13 days, read-out: ALOMY percentage phytotoxicity. The protocol: as §1, §2, §3
The subject of experiment [3] is Echinochloa crus-galli (ECHCG). The experiment in a line: Biological Example 1 glasshouse screen, pre-emergence herbicidal activity. Conditions: 312 h, application rate 250 g/ha, evaluated after 13 days, read-out: ECHCG percentage phytotoxicity. The protocol: as §1, §2, §3
Experiment [4] relates to Alopecurus myosuroides (ALOMY). Described as above. Particulars: 312 h, application rate 250 g/ha, evaluated after 13 days, read-out: ALOMY percentage phytotoxicity. The protocol: as §1, §2, §3
In experiment [5] the test system is Avena fatua (AVEFA). Briefly: Biological Example 1 glasshouse screen, post-emergence herbicidal activity. Conditions: 312 h, application rate 250 g/ha, evaluated after 13 days, read-out: AVEFA percentage phytotoxicity. The protocol:
as §1, §3

Experiment [6] relates to Lolium perenne (LOLPE). The description is as above. Conditions: 312 h, application rate 250 g/ha, evaluated after 13 days, read-out: LOLPE percentage phytotoxicity. The protocol:
as §1, §3

For experiment [7], the system named is Avena fatua (AVEFA). The experiment in a line: Biological Example 1 glasshouse screen, pre-emergence herbicidal activity. Conditions: 312 h, application rate 250 g/ha, evaluated after 13 days, read-out: AVEFA percentage phytotoxicity. The protocol: as §1, §3
Experiment [8] relates to Lolium perenne (LOLPE). The experiment is described as above. Particulars: 312 h, application rate 250 g/ha, evaluated after 13 days, read-out: LOLPE percentage phytotoxicity. The protocol: as §1, §3
For experiment [9], the system named is Avena fatua, wild oats (AVEFA). Briefly: Biological Example 3 glasshouse screen, post-emergence herbicidal activity. Conditions: 360 h, application rate 30 g/ha, 15 DAA, no safener, read-out: AVEFA percentage phytotoxicity. The protocol: (§4) Test Method: Seeds of a variety of test species are sown in standard soil in pots. After cultivation for one day (pre-emergence) or after 12 days cultivation (post-emergence) under controlled conditions in a glasshouse (warm climate species at 24/18°C., cool climate species at 20/16°C., both at day/night; 16 hours light; 65% humidity), the plants are sprayed with an aqueous spray solution derived from the formulation of the “technical”(i.e. unformulated) active ingredient dissolved in acetone plus IF50, at a 1:20 ratio of “technical”active ingredient to IF50. The IF50 contains about 10.56 weight % Emulsogen EL™(castor oil ethoxylate, CAS Registry number 61791-12-6), about 42.22 weight % N-methylpyrrolidone, and about 42.22 weight % DPG-Monoethyl ether (dipropylene glycol mono-ethyl ether). The adjuvant X-77 (a mixture of alkyl aryl polyoxyethylene glycols and free fatty acids in isopropanol, CAS Registry number 11097-66-8) is added to the aqueous spray solution to form a 0.2% v/v solution, before spraying onto the plants.
(§5) The test plants are then grown in a glasshouse under controlled conditions in a glasshouse (at 24/18°C. or 20/16°C., day/night; 16 hours light; 65% humidity) and watered twice daily. After 15 days after application of the herbicide (15 DAA) (for post-emergence), and after 20 DAA (for pre-emergence), the test is evaluated visually, and an assessed percentage phytotoxicity score is given for each herbicidal application on each plant/weed species (with 100%=total damage to plant; 0%=no damage to plant). […]

Experiment [10] concerns Alopecurus myosuroides, blackgrass (ALOMY). Described as above. Conditions: 360 h, application rate 30 g/ha, 15 DAA, no safener, read-out: ALOMY percentage phytotoxicity. The protocol:
as §4, §5

Experiment [11] relates to Lolium perenne, perennial ryegrass (LOLPE). The experiment is described as above. Particulars: 360 h, application rate 30 g/ha, 15 DAA, no safener, read-out: LOLPE percentage phytotoxicity. The protocol: as §4, §5
Experiment [12] relates to Echinochloa crus galli, barnyardgrass (ECHCG). Described as above. Conditions: 360 h, application rate 30 g/ha, 15 DAA, no safener, read-out: ECHCG percentage phytotoxicity. The protocol: as §4, §5
Experiment [13] deals with Triticum aestivum, wheat (TRZAW). The experiment in a line: Biological Example 3 glasshouse screen, post-emergence, phytotoxicity on wheat. Particulars: 360 h, application rate 30 g/ha, 15 DAA, no safener, read-out: TRZAW percentage phytotoxicity. The protocol: as §4
The test plants are then grown in a glasshouse under controlled conditions in a glasshouse (at 24/18°C. or 20/16°C., day/night; 16 hours light; 65% humidity) and watered twice daily. After 15 days after application of the herbicide (15 DAA) (for post-emergence), and after 20 DAA (for pre-emergence), the test is evaluated visually, and an assessed percentage phytotoxicity score is given for each herbicidal application on each plant/weed species (with 100%=total damage to plant; 0%=no damage to plant).
These give an approximate indication of the level of selectivity on wheat for these tested compounds, when a herbicide safener such as cloquintocet-mexyl is not used: […]

For the compound `CC#Cc1cc(C)c(C2=C(O)CC(Cc3cccc(C#N)n3)C2=O)c(C)c1` (centres unmarked) [Compound A-12], the pest or weed control at 250 g/ha was 100% in [1]; 90% in experiment [2]; 100% in [3]; 90% in experiment [4]; 100% in the experiment with Avena fatua (AVEFA) [5]; 90% in the experiment on Lolium perenne (LOLPE) [6]. Also, the pest or weed control at 250 g/ha in the experiment with Avena fatua (AVEFA) [7] worked out at 80%; in the experiment with Lolium perenne (LOLPE) [8], 90%.
Regarding `CC#Cc1cc(C)c(C2=C(O)CC(Cc3ccc(C(C)=O)cn3)C2=O)c(C)c1` (centres unmarked) [Compound A-13], the pest or weed control at 250 g/ha was 100% in [1]; 70% in experiment [2]; 100% in experiment [3]; 80% in experiment [4]; 80% in the experiment with Avena fatua (AVEFA) [5]; 80% with Lolium perenne (LOLPE) [6]. Also, the pest or weed control at 250 g/ha with Avena fatua (AVEFA) [7] and in the experiment on Lolium perenne (LOLPE) [8] was 80% in each case.
With `C#CCC1CC(=O)C(c2c(C)cc(C#CC)cc2C)C1=O` (centres unmarked) [Compound A-20], the pest or weed control at 250 g/ha was determined as 100% in [1]; 100% in experiment [2]; 100% in experiment [3]; 100% in experiment [4]; 90% with Avena fatua (AVEFA) [5]; 100% in the experiment with Lolium perenne (LOLPE) [6]. For the same compound, the pest or weed control at 250 g/ha in the experiment on Avena fatua (AVEFA) [7] came out at 90%; in the experiment with Lolium perenne (LOLPE) [8], 100%.
On to `CC#CCC1CC(=O)C(c2c(C)cc(C#CC)cc2C)C1=O` (centres unmarked) [Compound A-21], for which the pest or weed control at 250 g/ha in experiment [1] is 100%; in experiment [2] it was 100%; in experiment [3], 100%; in [4], 100%; in the experiment on Avena fatua (AVEFA) [5] it was 80%; with Lolium perenne (LOLPE) [6], 100%. For the same compound, the pest or weed control at 250 g/ha was 60% in the experiment on Avena fatua (AVEFA) [7] and 100% with Lolium perenne (LOLPE) [8].
Take `CC#Cc1cc(C)c(C2C(=O)CC(CC#CCl)C2=O)c(C)c1` (centres unmarked) [Compound A-22]: the pest or weed control at 250 g/ha in [1] was found to be 100%; in experiment [2] it was 60%; in [3], 100%; in experiment [4] it was 90%; in the experiment on Avena fatua (AVEFA) [5] it was 0%; in the experiment on Lolium perenne (LOLPE) [6] it was 80%. Moreover, the pest or weed control at 250 g/ha in the experiment with Avena fatua (AVEFA) [7] worked out at 80%; in the experiment on Lolium perenne (LOLPE) [8] it was 90%.
Turning to `CC#Cc1cc(C)c(C2C(=O)CC(Cc3ccc(C#N)c(NC)n3)C2=O)c(C)c1` (centres unmarked) [Compound A-23, 6-[[3-(2,6-dimethyl-4-prop-1-ynyl-phenyl)-2,4-dioxo-cyclopentyl]methyl]-2-(methylamino)pyridine-3-carbonitrile], the pest or weed control at 250 g/ha worked out at 100% in experiment [1]; 100% in experiment [2]; 100% in experiment [3]; 80% in experiment [4]; 90% in the experiment with Avena fatua (AVEFA) [5]; 90% in the experiment with Lolium perenne (LOLPE) [6]. The pest or weed control at 250 g/ha with Avena fatua (AVEFA) [7] and in the experiment with Lolium perenne (LOLPE) [8] was 80% each time.
As to `CC#Cc1cc(C)c(C2C(=O)CC(Cc3ccn[nH]3)C2=O)c(C)c1` (centres unmarked) [Compound A-24], the pest or weed control at 250 g/ha (in experiment [1]; in experiment [2]; in experiment [3]; in experiment [4]; in the experiment with Avena fatua (AVEFA) [5]; in the experiment on Lolium perenne (LOLPE) [6]) was 100% in each case. In addition, the pest or weed control at 250 g/ha in the experiment with Avena fatua (AVEFA) [7] came out at 80%; in the experiment with Lolium perenne (LOLPE) [8] it was 100%.
`C#CCC1CC(=O)C(c2c(C)cc(C#CCl)cc2C)C1=O` (centres unmarked) [Compound A-25]: the pest or weed control at 250 g/ha in experiment [1] was determined as 100%; in experiment [2] it was 90%; in [3] it was 100%; in experiment [4], 90%; in the experiment with Avena fatua (AVEFA) [5], 100%; with Lolium perenne (LOLPE) [6], 100%. The pest or weed control at 250 g/ha in the experiment on Avena fatua (AVEFA) [7] was found to be 70%; with Lolium perenne (LOLPE) [8], 100%.
On to `CC#Cc1cc(C)c(C2C(=O)CC(Cc3ccc(C#N)cn3)C2=O)c(CC)c1` (centres unmarked) [Compound A-27], for which the pest or weed control at 250 g/ha in experiment [1] was 100%; in experiment [2] it was 70%; in experiment [3], 100%; in experiment [4], 90%; in the experiment with Avena fatua (AVEFA) [5], 100%; with Lolium perenne (LOLPE) [6] it was 90%. Moreover, the pest or weed control at 250 g/ha is 90% in the experiment on Avena fatua (AVEFA) [7] and 100% in the experiment on Lolium perenne (LOLPE) [8].
For `CC#Cc1cc(C)c(C2C(=O)CC(Cc3ccc(C#N)cc3)C2=O)c(C)c1` (centres unmarked) [Compound A-28], the pest or weed control at 250 g/ha in [1] was 100%; in experiment [2], 90%; in experiment [3], 100%; in [4], 70%; in the experiment on Avena fatua (AVEFA) [5], 80%; in the experiment on Lolium perenne (LOLPE) [6] it was 90%. In addition, the results for the pest or weed control at 250 g/ha in the experiment on Avena fatua (AVEFA) [7] and with Lolium perenne (LOLPE) [8] were 70% and 90%, respectively.
On to `CC#Cc1cc(C)c(C2C(=O)CC(Cc3ccccc3C#N)C2=O)c(C)c1` (centres unmarked) [Compound A-29], for which the pest or weed control at 250 g/ha was 100% in experiment [1]; 100% in experiment [2]; 80% in experiment [3]; 50% in experiment [4]; 80% in the experiment with Avena fatua (AVEFA) [5]; 100% in the experiment on Lolium perenne (LOLPE) [6]. The pest or weed control at 250 g/ha amounted to 100% with Avena fatua (AVEFA) [7] and 50% in the experiment with Lolium perenne (LOLPE) [8].
Regarding `Cc1cc(-c2ccc(F)cc2)cc(C)c1C1C(=O)CC(Cc2ccccn2)C1=O` (centres unmarked) [Compound T71, from WO 2010/069834, reference compound], the pest or weed control at 30 g/ha was determined as 100% in experiment [9]; 100% in experiment [10]; 90% in experiment [11]; 100% in experiment [12]; 80% in [13].
In the case of `Cc1cc(-c2ccc(F)c(Cl)c2)cc(C)c1C1C(=O)CC(Cc2ccccn2)C1=O` (centres unmarked) [reference compound], the pest or weed control at 30 g/ha in experiment [9] was found to be 90%; in [10] it was 100%; in experiment [11] it was 70%; in experiment [12] it was 90%; in experiment [13], 70%.
